Results taken from paper PMC6968775, “Assessment of contribution of BCRP to intestinal absorption of various drugs using portal‐systemic blood concentration difference model in mice” (Pharmacology Research & Perspectives, 2020).
Where “and” joins values, the source holds several entries; their conditions need not be identical. Equal entries are not always repeated.

Tests used:
[1] = Pharmacokinetics after iv and oral administration, P‐S difference method, wild‐type mice; format: in vivo
Procedure: (§1) Male Mdr1a/1b(−/−) and Bcrp(−/−) mice, and WT mice of the same genetic background (FVB) were obtained from Taconic Farms (Germantown, NY, USA). […] Food and water were available ad libitum. All experiments were carried out in accordance with the principles and procedures outlined in the National Institutes of Health Guide for the Care and Use of Laboratory.
(§2) All the mice were fasted overnight with free access to tap water. In the intravenous administration studies, model compounds were administered via the tail vein at doses of 1 mg/kg (n = 3). Following administration, blood samples were collected from the abdominal vein of the anesthetized mice at 0.083, 0.17, 0.5, 1, 2, 4, and 8 hours. […] Following administration, blood samples were taken from the portal and abdominal veins of the anesthetized mice at 0.083, 0.17, 0.5, 1, 2, 4, and 8 hours. The plasma samples were separated by centrifugation at 14 000g for 10 minutes at 4°C and stored at −30°C until analysis.
(§3) After organic layer was evaporated at 60°C, the resultant residues were dissolved in a mobile phase. For the determination of topotecan and sulfasalazine, plasma samples were mixed with acetonitrile, centrifuged at 750 g for 10 minutes at 4°C, and the supernatants were collected. After the evaporation of the supernatants, the residues were dissolved in a mobile phase, and acidified with phosphoric acid for topotecan. All drugs were analyzed by HPLC system (Shimadzu LC‐10AS pump, Shimadzu SIL‐10A autosampler) equipped with a reverse‐phase column (COSMOSIL 5C18‐AR‐II, 3.5‐μm […], 4.6 × 150 mm).
(§4) Elimination rate constant (k e) was determined by the least squares regression analysis of plasma concentration vs time curve. Elimination half‐life (t 1/2) was calculated using Eq.1:(1) t1/2=ln2/ke
(§5) Area under plasma concentration‐time curve (AUC) and area under the first moment curve (AUMC) from time 0 to infinity were calculated by trapezoidal rule.
(§6) Absorption rate constant (k a) after oral administration was calculated by the nonlinear least squares fitting with program MULTI.12
(§7) BA was calculated by Eq.5:(7) BA=AUCoral/AUCiv×Doseiv/Doseoral×100 where AUCoral is AUC after oral administration. Doseiv and Doseoral are administered dose in the intravenous and oral administration study, respectively.
(§8) Hepatic availability (F h) was calculated by Eq.6:(8) Fh=F/Fa×Fg

[2] = Pharmacokinetics after iv and oral administration, P‐S difference method, Bcrp(−/−) mice; format: in vivo
Procedure: as §1, §2, §3, §4, §5, §6, §7, §8

[3] = Pharmacokinetics after iv and oral administration, P‐S difference method, Mdr1a/1b(−/−) mice; format: in vivo
Procedure: as §1, §2, §3, §4, §5, §6, §7, §8

[4] = Blood/plasma concentration ratio (R b) in fresh whole blood; format: in vitro ADME, FVB mice; conditions: fresh whole blood, FVB mouse whole blood, 37°C
Procedure: Similarly, the model compounds were added to plasma, and reference blood samples were obtained according to the same procedure. These concentrations of drugs in each sample were analyzed using HPLC (C B and C P, respectively). R b value was calculated by dividing C B by C P.

BCRP [5] = system: BCRP
P‐gp [6] = conditions: in vivo (mice); calculated from F a F g in WT, Bcrp(−/−) and Mdr1a/1b(−/−) mice (Eq. 12)
BCRP [7] = conditions: Caco‐2 permeability study; ref (10); Kawahara et al, manuscript in revision; cited from earlier work
P‐gp [8] = conditions: Caco‐2 permeability study; unpublished data; ref Fujita et al, manuscript in preparation; cited from earlier work
[9] = wild‐type mice, p.o. (ciprofloxacin 1, nitrofurantoin 2, topotecan 1, sulfasalazine 5 mg/kg)
[10] = Bcrp(−/−) mice, p.o. (ciprofloxacin 1, nitrofurantoin 2, topotecan 1, sulfasalazine 5 mg/kg)
[11] = Mdr1a/1b(−/−) mice, p.o. (ciprofloxacin 1, nitrofurantoin 2, topotecan 1, sulfasalazine 5 mg/kg)
[12] = male, Mdr1a/1b(−/−) (FVB background), mouse, systemic plasma (abdominal vein), po

k a, wt ([1]; Table 5 summary, WT mice, oral administration): 5.80 | (F a F g) wt ([1]; as fraction, WT mice, oral administration): 0.64 | clearance ([1]; male, FVB (wild-type), mouse, plasma (systemic, abdominal vein), wild‐type mice, iv 1 mg/kg, read-out: CL tot (converted)): 38 mL/min/kg | Vd ([1]; male, FVB (wild-type), mouse, plasma (systemic, abdominal vein), wild‐type mice, iv 1 mg/kg, read-out: Vdss): 1.94 L/kg | half-life ([1]; male, FVB (wild-type), mouse, plasma, iv, 1 mg/kg, wild‐type mice, iv 1 mg/kg): 172 min | AUC(0-inf) ([1]; male, FVB (wild-type), mouse, plasma, iv, 1 mg/kg, wild‐type mice, iv 1 mg/kg, read-out: AUC 0→∞): 1.84 µM·h | Tmax ([1]; male, FVB (wild-type), mouse, portal vein plasma, po): 10.2 min | AUC(0-inf) ([1]; male, FVB (wild-type), mouse, portal vein plasma, po, wild‐type mice, p.o. (ciprofloxacin 1, nitrofurantoin 2, topotecan 1, sulfasalazine 5 mg/kg), portal vein (pv) plasma, read-out: AUC 0→∞ (AUCpv)): 2.54 µM·h | Tmax ([1]; male, FVB (wild-type), mouse, systemic plasma (abdominal vein), po): 10.2 min | half-life ([1]; male, FVB (wild-type), mouse, systemic plasma (abdominal vein), po, wild‐type mice, p.o. (ciprofloxacin 1, nitrofurantoin 2, topotecan 1, sulfasalazine 5 mg/kg), systemic (sys) plasma): 55.8 min | AUC(0-inf) ([1]; male, FVB (wild-type), mouse, systemic plasma (abdominal vein), po, wild‐type mice, p.o. (ciprofloxacin 1, nitrofurantoin 2, topotecan 1, sulfasalazine 5 mg/kg), systemic (sys) plasma, read-out: AUC 0→∞ (AUCsys)): 1.83 µM·h | F h [1, 9]: 78.3% | k a [1, 9]: 5.8 h⁻¹ and 5.80 h⁻¹ | BA ([1]; wild‐type mice, p.o. (ciprofloxacin 1, nitrofurantoin 2, topotecan 1, sulfasalazine 5 mg/kg) vs iv 1 mg/kg): 49.9% | F a F g ([1]; wild‐type mice, p.o. (ciprofloxacin 1, nitrofurantoin 2, topotecan 1, sulfasalazine 5 mg/kg), P‐S difference method): 63.7% | AUC 0→∞ (AUCpv) ([1]; wild‐type mice, p.o. (ciprofloxacin 1, nitrofurantoin 2, topotecan 1, sulfasalazine 5 mg/kg), portal vein (pv) plasma): 2.55 µM·h | AUC 0→∞ (AUCsys) ([1]; wild‐type mice, p.o. (ciprofloxacin 1, nitrofurantoin 2, topotecan 1, sulfasalazine 5 mg/kg), systemic (sys) plasma): 1.84 µM·h | F h [2, 10]: 90.0% | k a [2, 10]: 6.9 h⁻¹ and 6.89 h⁻¹ | BA ([2]; Bcrp(−/−) mice, p.o. (ciprofloxacin 1, nitrofurantoin 2, topotecan 1, sulfasalazine 5 mg/kg) vs iv 1 mg/kg): 69.4% | F a F g ([2]; Bcrp(−/−) mice, p.o. (ciprofloxacin 1, nitrofurantoin 2, topotecan 1, sulfasalazine 5 mg/kg), P‐S difference method): 77.1% | AUC 0→∞ (AUCpv) ([2]; Bcrp(−/−) mice, p.o. (ciprofloxacin 1, nitrofurantoin 2, topotecan 1, sulfasalazine 5 mg/kg), portal vein (pv) plasma): 3.41 µM·h | AUC 0→∞ (AUCsys) ([2]; Bcrp(−/−) mice, p.o. (ciprofloxacin 1, nitrofurantoin 2, topotecan 1, sulfasalazine 5 mg/kg), systemic (sys) plasma): 2.56 µM·h | k a, bcrp ([2]; Table 5 summary, Bcrp(−/−) mice, oral administration): 6.89 | (F a F g)bcrp ([2]; as fraction, Bcrp(−/−) mice, oral administration): 0.77 | half-life ([2]; male, Bcrp(−/−) (FVB background), mouse, plasma, iv, 1 mg/kg, Bcrp(−/−) mice, iv 1 mg/kg): 84.6 min | Tmax ([2]; male, Bcrp(−/−) (FVB background), mouse, portal vein plasma, po): 10.2 min | Tmax ([2]; male, Bcrp(−/−) (FVB background), mouse, systemic plasma (abdominal vein), po): 10.2 min | AUC(0-inf) ([2]; male, FVB Bcrp(−/−), mouse, plasma (systemic, abdominal vein), iv, 1 mg/kg, Bcrp(−/−) mice, iv 1 mg/kg, read-out: AUC 0→∞): 1.84 µM·h | clearance ([2]; male, FVB Bcrp(−/−), mouse, plasma (systemic, abdominal vein), Bcrp(−/−) mice, iv 1 mg/kg, read-out: CL tot (converted)): 38 mL/min/kg | Vd ([2]; male, FVB Bcrp(−/−), mouse, plasma (systemic, abdominal vein), Bcrp(−/−) mice, iv 1 mg/kg, read-out: Vdss): 1.45 L/kg | AUC(0-inf) ([2]; male, FVB Bcrp(−/−), mouse, portal vein plasma, po, Bcrp(−/−) mice, p.o. (ciprofloxacin 1, nitrofurantoin 2, topotecan 1, sulfasalazine 5 mg/kg), portal vein (pv) plasma, read-out: AUC 0→∞ (AUCpv)): 3.41 µM·h | half-life ([2]; male, FVB Bcrp(−/−), mouse, systemic plasma (abdominal vein), po, Bcrp(−/−) mice, p.o. (ciprofloxacin 1, nitrofurantoin 2, topotecan 1, sulfasalazine 5 mg/kg), systemic (sys) plasma): 75 min | AUC(0-inf) ([2]; male, FVB Bcrp(−/−), mouse, systemic plasma (abdominal vein), po, Bcrp(−/−) mice, p.o. (ciprofloxacin 1, nitrofurantoin 2, topotecan 1, sulfasalazine 5 mg/kg), systemic (sys) plasma, read-out: AUC 0→∞ (AUCsys)): 2.56 µM·h | AUC pv and AUC sys after oral administration, Bcrp(−/−) mice vs WT mice ([2]; oral administration): approximately 1.5 fold | F h [3, 11]: 79.9% | k a [3, 11]: 7.2 h⁻¹ and 7.20 h⁻¹ | BA ([3]; Mdr1a/1b(−/−) mice, p.o. (ciprofloxacin 1, nitrofurantoin 2, topotecan 1, sulfasalazine 5 mg/kg) vs iv 1 mg/kg): 60.0% | F a F g ([3]; Mdr1a/1b(−/−) mice, p.o. (ciprofloxacin 1, nitrofurantoin 2, topotecan 1, sulfasalazine 5 mg/kg), P‐S difference method): 75.2% | AUC 0→∞ (AUCpv) ([3]; Mdr1a/1b(−/−) mice, p.o. (ciprofloxacin 1, nitrofurantoin 2, topotecan 1, sulfasalazine 5 mg/kg), portal vein (pv) plasma): 3.18 µM·h | AUC 0→∞ (AUCsys) ([3]; Mdr1a/1b(−/−) mice, p.o. (ciprofloxacin 1, nitrofurantoin 2, topotecan 1, sulfasalazine 5 mg/kg), systemic (sys) plasma): 2.35 µM·h | k a, P‐gp ([3]; Table 5 summary, Mdr1a/1b(−/−) mice, oral administration): 7.20 | (F a F g)P‐gp ([3]; as fraction, Mdr1a/1b(−/−) mice, oral administration): 0.75 | clearance ([3]; male, FVB Mdr1a/1b(−/−), mouse, plasma (systemic, abdominal vein), Mdr1a/1b(−/−) mice, iv 1 mg/kg, read-out: CL tot (converted)): 35.8 mL/min/kg | Vd ([3]; male, FVB Mdr1a/1b(−/−), mouse, plasma (systemic, abdominal vein), Mdr1a/1b(−/−) mice, iv 1 mg/kg, read-out: Vdss): 1.36 L/kg | AUC(0-inf) ([3]; male, FVB Mdr1a/1b(−/−), mouse, portal vein plasma, po, Mdr1a/1b(−/−) mice, p.o. (ciprofloxacin 1, nitrofurantoin 2, topotecan 1, sulfasalazine 5 mg/kg), portal vein (pv) plasma, read-out: AUC 0→∞ (AUCpv)): 3.18 µM·h | AUC(0-inf) ([3]; male, FVB Mdr1a/1b(−/−), mouse, systemic plasma (abdominal vein), po, Mdr1a/1b(−/−) mice, p.o. (ciprofloxacin 1, nitrofurantoin 2, topotecan 1, sulfasalazine 5 mg/kg), systemic (sys) plasma, read-out: AUC 0→∞ (AUCsys)): 2.35 µM·h | AUC(0-inf) ([3]; male, Mdr1a/1b(−/−) (FVB background), mouse, plasma, iv, 1 mg/kg, Mdr1a/1b(−/−) mice, iv 1 mg/kg, read-out: AUC 0→∞): 1.95 µM·h | half-life ([3]; male, Mdr1a/1b(−/−) (FVB background), mouse, plasma, Mdr1a/1b(−/−) mice, iv 1 mg/kg): 70.2 min | Tmax ([3]; male, Mdr1a/1b(−/−) (FVB background), mouse, portal vein plasma, po): 10.2 min | Tmax [3, 12]: 10.2 min | half-life [3, 12]: 73.2 min | AUC pv and AUC sys after oral administration, Mdr1a/1b(−/−) mice vs WT mice ([3]; oral administration): approximately 1.5 fold | blood plasma ratio at 15 min, 1 µg/mL [4]: 1.18 ± 0.1 | AQ bcrp (in vivo) (BCRP [5]; calculated from k a in WT, Bcrp(−/−) and Mdr1a/1b(−/−) mice (Eq. 9)): 0.13 | R bcrp (rate of BCRP contribution) (BCRP [5]; in vivo (mice), calculated from F a F g in WT, Bcrp(−/−) and Mdr1a/1b(−/−) mice (Eq. 11)): 0.15 | R P‐gp (rate of P‐gp contribution) (P‐gp [6]): 0.13
SMILES: O=C1CN(/N=C/c2ccc([N+](=O)[O-])o2)C(=O)N1 [nitrofurantoin, Nitrofurantoin]
AQbcrp in vitro (Caco‐2) (BCRP [7]): 0.37 | AQp‐gp in vitro (Caco‐2) (P‐gp [8]): 0.09
